Reference: PubChem BioAssay AID200 (DTP/NCI, 2004)
“And” between values parts separate entries of the source, which are not always exact repeats. Equal values may be shown once. Toxic doses and inconclusive results are not listed.

Test system: B6C3F1 mice, B16 melanoma ip, median survival T/C
Assay: NCI In Vivo Anticancer Drug Screen. Data for tumor model B16 Melanoma (intraperitoneal) in B6C3F1 mice
Settings: endpoint: median survival time, higher = longer survival
Experimental: The antitumor activity of compounds was measured in mice bearing transplantable tumors. Survival or tumor size were measured and the results are expressed as the measurement made in the treated group (T) divided by the measurement made in the vehicle treated control group (C). The tumor model used in this assay is B16 Melanoma (intraperitoneal) in B6C3F1 mice

## O=C(Nc1cccnc1)c1ccc([N+](=O)[O-])s1
dose: 1.13 mg/kg/injection, schedule: Q01DX009 (ip), vehicle: saline
  T/C: 96 % of control
dose: 1.88 mg/kg/injection, schedule: Q01DX009 (ip), vehicle: saline
  T/C: 92 % of control
dose: 3.13 mg/kg/injection, schedule: Q01DX009 (ip), vehicle: saline
  T/C: 97 % of control
dose: 5.21 mg/kg/injection, schedule: Q01DX009 (ip), vehicle: saline
  T/C: 94 % of control
dose: 6.25 mg/kg/injection, schedule: Q01DX009 (ip), vehicle: saline
  T/C: 103 % of control
dose: 8.69 mg/kg/injection, schedule: Q01DX009 (ip), vehicle: saline
  T/C: 89 % of control
dose: 12.5 mg/kg/injection, schedule: Q01DX009 (ip), vehicle: saline
  T/C: 97 % of control
dose: 25.0 mg/kg/injection, schedule: Q01DX009 (ip), vehicle: saline
  T/C: 87 % of control and 99 % of control

## [N-]=[N+]=C1N=CN=C1c1ncn[nH]1
dose: 3.12 mg/kg/injection, schedule: Q01DX009 (ip), vehicle: Klucel (hydroxypropylcellulose) (HPC)
  T/C: 104 % of control
dose: 6.25 mg/kg/injection, schedule: Q01DX009 (ip), vehicle: Klucel (hydroxypropylcellulose) (HPC)
  T/C: 113 % of control
dose: 12.5 mg/kg/injection, schedule: Q01DX009 (ip), vehicle: Klucel (hydroxypropylcellulose) (HPC)
  T/C: 121 % of control

## CC[C@@H](C)[C@@H]1NC(=O)C(NC(=O)C(CC(C)C)N(C)C(=O)C2CCCN2C(=O)C(C)O)C(C)OC(=O)C(Cc2ccc(OC)cc2)N(C)C(=O)C2CCCN2C(=O)C(CC(C)C)NC(=O)C(C)C(=O)C(C(C)C)OC(=O)C[C@H]1O (stereo partly specified)
dose: 5.0 micrograms/kg/injection, schedule: Q01DX009 (ip), vehicle: distilled water + alcohol
  T/C: 102 % of control
dose: 10.0 micrograms/kg/injection, schedule: Q01DX009 (ip), vehicle: distilled water + alcohol
  T/C: 111 % of control and 112 % of control
dose: 10.0 micrograms/kg/injection, schedule: Q01DX009 (ip), vehicle: other
  T/C: 120 % of control
dose: 20.0 micrograms/kg/injection, schedule: Q01DX005 (ip), vehicle: other
  T/C: 120 % of control
dose: 20.0 micrograms/kg/injection, schedule: Q01DX005 (iv), vehicle: other
  T/C: 105 % of control
dose: 20.0 micrograms/kg/injection, schedule: Q01DX005 (sc), vehicle: other
  T/C: 111 % of control
dose: 20.0 micrograms/kg/injection, schedule: Q01DX009 (ip), vehicle: distilled water + alcohol
  T/C: 117 % of control and 123 % of control
dose: 40.0 micrograms/kg/injection, schedule: Q01DX005 (iv), vehicle: other
  T/C: 101 % of control and 104 % of control
dose: 40.0 micrograms/kg/injection, schedule: Q01DX005 (sc), vehicle: other
  T/C: 108 % of control
dose: 40.0 micrograms/kg/injection, schedule: Q01DX009 (ip), vehicle: distilled water + alcohol
  T/C: 124 % of control
dose: 40.0 micrograms/kg/injection, schedule: Q01DX009 (ip), vehicle: other
  T/C: 153 % of control
dose: 40.0 micrograms/kg/injection, schedule: Q03HX008 (ip), vehicle: saline
  T/C: 124 % of control
dose: 71.0 micrograms/kg/injection, schedule: Q01DX009 (ip), vehicle: other
  T/C: 151 % of control
dose: 80.0 micrograms/kg/injection, schedule: Q01DX005 (ip), vehicle: other
  T/C: 122 % of control
dose: 80.0 micrograms/kg/injection, schedule: Q01DX005 (iv), vehicle: other
  T/C: 112 % of control and 96 % of control
dose: 80.0 micrograms/kg/injection, schedule: Q01DX005 (oral), vehicle: other
  T/C: 100 % of control
dose: 80.0 micrograms/kg/injection, schedule: Q01DX005 (sc), vehicle: other
  T/C: 113 % of control and 103 % of control
dose: 80.0 micrograms/kg/injection, schedule: Q01DX009 (ip), vehicle: distilled water + alcohol
  T/C: 153 % of control
dose: 80.0 micrograms/kg/injection, schedule: Q01DX009 (ip), vehicle: other
  T/C: 163 % of control
dose: 106.0 micrograms/kg/injection, schedule: Q01DX009 (ip), vehicle: other
  T/C: 159 % of control
dose: 160.0 micrograms/kg/injection, schedule: Q01DX001 (iv), vehicle: other
  T/C: 102 % of control
dose: 160.0 micrograms/kg/injection, schedule: Q01DX001 (sc), vehicle: other
  T/C: 106 % of control
dose: 160.0 micrograms/kg/injection, schedule: Q01DX005 (iv), vehicle: other
  T/C: 104 % of control and 106 % of control
dose: 160.0 micrograms/kg/injection, schedule: Q01DX005 (oral), vehicle: other
  T/C: 119 % of control and 105 % of control
dose: 160.0 micrograms/kg/injection, schedule: Q01DX005 (sc), vehicle: other
  T/C: 110 % of control and 122 % of control
dose: 160.0 micrograms/kg/injection, schedule: Q01DX009 (ip), vehicle: distilled water + alcohol
  T/C: 162 % of control and 164 % of control
dose: 160.0 micrograms/kg/injection, schedule: Q01DX009 (ip), vehicle: other
  T/C: 163 % of control
dose: 160.0 micrograms/kg/injection, schedule: Q01DX009 (ip), vehicle: saline
  T/C: 151 % of control
dose: 320.0 micrograms/kg/injection, schedule: Q01DX001 (iv), vehicle: other
  T/C: 99 % of control and 106 % of control
dose: 320.0 micrograms/kg/injection, schedule: Q01DX001 (oral), vehicle: other
  T/C: 99 % of control
dose: 320.0 micrograms/kg/injection, schedule: Q01DX001 (sc), vehicle: other
  T/C: 102 % of control
dose: 320.0 micrograms/kg/injection, schedule: Q01DX005 (ip), vehicle: other
  T/C: 123 % of control
dose: 320.0 micrograms/kg/injection, schedule: Q01DX005 (iv), vehicle: other
  T/C: 104 % of control and 106 % of control
dose: 320.0 micrograms/kg/injection, schedule: Q01DX005 (oral), vehicle: other
  T/C: 104 % of control and 105 % of control
dose: 320.0 micrograms/kg/injection, schedule: Q01DX005 (sc), vehicle: other
  T/C: 94 % of control and 105 % of control
dose: 640.0 micrograms/kg/injection, schedule: Q01DX001 (ip), vehicle: other
  T/C: 116 % of control
dose: 640.0 micrograms/kg/injection, schedule: Q01DX001 (iv), vehicle: other
  T/C: 102 % of control and 108 % of control
dose: 640.0 micrograms/kg/injection, schedule: Q01DX001 (oral), vehicle: other
  T/C: 99 % of control
dose: 640.0 micrograms/kg/injection, schedule: Q01DX001 (sc), vehicle: other
  T/C: 117 % of control and 102 % of control
dose: 640.0 micrograms/kg/injection, schedule: Q01DX005 (oral), vehicle: other
  T/C: 100 % of control and 107 % of control
dose: 1280.0 micrograms/kg/injection, schedule: Q01DX001 (ip), vehicle: other
  T/C: 124 % of control
dose: 1280.0 micrograms/kg/injection, schedule: Q01DX001 (ip), vehicle: saline
  T/C: 117 % of control
dose: 1280.0 micrograms/kg/injection, schedule: Q01DX001 (iv), vehicle: other
  T/C: 118 % of control and 106 % of control
dose: 1280.0 micrograms/kg/injection, schedule: Q01DX001 (oral), vehicle: other
  T/C: 103 % of control and 108 % of control
dose: 1280.0 micrograms/kg/injection, schedule: Q01DX001 (sc), vehicle: other
  T/C: 118 % of control and 100 % of control
dose: 1280.0 micrograms/kg/injection, schedule: Q01DX005 (oral), vehicle: other
  T/C: 97 % of control and 102 % of control
dose: 2560.0 micrograms/kg/injection, schedule: Q01DX001 (oral), vehicle: other
  T/C: 114 % of control and 100 % of control
dose: 2560.0 micrograms/kg/injection, schedule: Q01DX001 (sc), vehicle: other
  T/C: 112 % of control
dose: 2560.0 micrograms/kg/injection, schedule: Q01DX005 (oral), vehicle: other
  T/C: 99 % of control and 100 % of control
dose: 5120.0 micrograms/kg/injection, schedule: Q01DX001 (oral), vehicle: other
  T/C: 101 % of control and 105 % of control
dose: 10240.0 micrograms/kg/injection, schedule: Q01DX001 (oral), vehicle: other
  T/C: 105 % of control

## CC1=CC(=O)C(O)C2(C)C1CC1OC(=O)C(OC(=O)CC(C)(C)O)C3C(C)C(O)C4(O)OCC13C42 (stereo unspecified)
dose: 0.25 mg/kg/injection, schedule: Q01DX009 (ip), vehicle: saline + alcohol
  T/C: 108 % of control
dose: 0.5 mg/kg/injection, schedule: Q01DX009 (ip), vehicle: saline + alcohol
  T/C: 116 % of control
dose: 1.0 mg/kg/injection, schedule: Q01DX009 (ip), vehicle: saline + alcohol
  T/C: 110 % of control
dose: 2.0 mg/kg/injection, schedule: Q01DX009 (ip), vehicle: saline + alcohol
  T/C: 116 % of control
dose: 4.0 mg/kg/injection, schedule: Q01DX009 (ip), vehicle: saline + alcohol
  T/C: 120 % of control

## COC1C(N)C(OC2C(Oc3cccc4c(O)c5c(=O)oc6ccc(C)c7c(=O)oc(c34)c5c67)OC(C)C(O)C2(C)O)OC(C)C1O (stereo unspecified)
dose: 1.09 mg/kg/injection, schedule: Q01DX009 (ip), vehicle: DMSO
  T/C: 226 % of control
dose: 1.25 mg/kg/injection, schedule: Q01DX009 (ip), vehicle: other
  T/C: 179 % of control
dose: 1.81 mg/kg/injection, schedule: Q01DX009 (ip), vehicle: DMSO
  T/C: 255 % of control
dose: 2.5 mg/kg/injection, schedule: Q01DX009 (ip), vehicle: other
  T/C: 227 % of control
dose: 3.0 mg/kg/injection, schedule: Q01DX009 (ip), vehicle: DMSO
  T/C: 244 % of control
dose: 5.0 mg/kg/injection, schedule: Q01DX009 (ip), vehicle: DMSO
  T/C: 326 % of control
dose: 5.0 mg/kg/injection, schedule: Q01DX009 (ip), vehicle: other
  T/C: 227 % of control
dose: 8.4 mg/kg/injection, schedule: Q01DX009 (ip), vehicle: DMSO
  T/C: 190 % of control
dose: 10.0 mg/kg/injection, schedule: Q01DX009 (ip), vehicle: other
  T/C: 179 % of control
